Target: human APJ receptor (Homo sapiens (Human), UniProt P35414)
Assay: biochemical
Type: biochemical
Details: read-out: Activity hAPJ SPA EC50 IP
Summary of the method: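 Agonist-stimulated [35S]GTPγS (0.2 nM) binding was read by SPA after 90 min at room temperature. Buffer: 20 mM HEPES pH 7.5 with 5 mM MgCl2, 200 mM NaCl, 3 μM GDP, 0.1% BSA; membranes were from a stable human APJ CHO line. EC50 values are averages of independent runs, fitted by non-linear regression.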

Chain of human APJ receptor (P35414 whole entry): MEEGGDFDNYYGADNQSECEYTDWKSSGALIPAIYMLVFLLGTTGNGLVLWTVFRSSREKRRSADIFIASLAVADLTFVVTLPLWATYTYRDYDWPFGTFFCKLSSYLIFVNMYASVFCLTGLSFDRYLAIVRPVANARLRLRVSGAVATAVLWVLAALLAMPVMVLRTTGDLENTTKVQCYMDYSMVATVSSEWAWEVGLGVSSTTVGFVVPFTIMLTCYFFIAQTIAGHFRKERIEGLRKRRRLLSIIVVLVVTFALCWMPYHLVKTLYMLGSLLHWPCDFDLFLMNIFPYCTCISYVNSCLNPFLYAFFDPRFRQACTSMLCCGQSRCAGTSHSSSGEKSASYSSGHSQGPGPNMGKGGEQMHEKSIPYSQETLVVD

Structure (SMILES)	EC50
COc1cccc(-c2nnc(NS(=O)(=O)[C@H](C)[C@H](OC)c3ccc(C#N)cc3C#N)n2-c2c(OC)cccc2OC)n1 (single isomer, unassigned) [Example 476.0, (1R,2R)-1-(2,4-dicyanophenyl)-N-(4-(2,6-dimethoxyphenyl)-5-(6-methoxy-2-pyridinyl)-4H-1,2,4-triazol-3-yl)-1-methoxy-2-propanesulfonamide or (1S,2S)-1-(2,4-dicyanophenyl)-N-(4-(2,6-dimethoxyphenyl)-5-(6-methoxy-2-pyridinyl)-4H-1,2,4-triazol-3-yl)-1-methoxy-2-propanesulfonamide]	0.55 nM
COc1cccc(-c2nnc(NS(=O)(=O)C[C@@H](O)c3ccc(C#N)cc3S(C)(=O)=O)n2-c2c(OC)cccc2OC)n1 (single isomer, unassigned) [Example 482.0, (2S)-2-(4-cyano-2-(methylsulfonyl)phenyl)-N-(4-(2,6-dimethoxyphenyl)-5-(6-methoxy-2-pyridinyl)-4H-1,2,4-triazol-3-yl)-2-hydroxyethanesulfonamide or (2R)-2-(4-cyano-2-(methylsulfonyl)phenyl)-N-(4-(2,6-dimethoxyphenyl)-5-(6-methoxy-2-pyridinyl)-4H-1,2,4-triazol-3-yl)-2-hydroxyethanesulfonamide]	0.2 nM
COc1cccc(-c2nnc(NS(=O)(=O)C[C@H](OC)c3ccc(C#N)cc3S(C)(=O)=O)n2-c2c(OC)cccc2OC)n1 (single isomer, unassigned) [Example 485.0, (2R)-2-(4-cyano-2-(methylsulfonyl)phenyl)-N-(4-(2,6-dimethoxyphenyl)-5-(6-methoxy-2-pyridinyl)-4H-1,2,4-triazol-3-yl)-2-methoxyethanesulfonamide or (2S)-2-(4-cyano-2-(methylsulfonyl)phenyl)-N-(4-(2,6-dimethoxyphenyl)-5-(6-methoxy-2-pyridinyl)-4H-1,2,4-triazol-3-yl)-2-methoxyethanesulfonamide]	0.098 nM
COc1cccc(-c2nnc(NS(=O)(=O)C[C@H](OC)c3ccc(C#N)cc3S(C)(=O)=O)n2-c2c(OC)cccc2OC)n1 (single isomer, unassigned) [Example 486.0, (2R)-2-(4-cyano-2-(methylsulfonyl)phenyl)-N-(4-(2,6-dimethoxyphenyl)-5-(6-methoxy-2-pyridinyl)-4H-1,2,4-triazol-3-yl)-2-methoxyethanesulfonamide or (2S)-2-(4-cyano-2-(methylsulfonyl)phenyl)-N-(4-(2,6-dimethoxyphenyl)-5-(6-methoxy-2-pyridinyl)-4H-1,2,4-triazol-3-yl)-2-methoxyethanesulfonamide]	0.073 nM
COc1cccc(OC)c1-n1c(NS(=O)(=O)C[C@H](O)c2ccc(C#N)cc2S(C)(=O)=O)nnc1-c1cncc(C)c1 (single isomer, unassigned) [Example 491.0, (2R)-2-(4-cyano-2-(methylsulfonyl)phenyl)-N-(4-(2,6-dimethoxyphenyl)-5-(5-methyl-3-pyridinyl)-4H-1,2,4-triazol-3-yl)-2-hydroxyethanesulfonamide or (2S)-2-(4-cyano-2-(methylsulfonyl)phenyl)-N-(4-(2,6-dimethoxyphenyl)-5-(5-methyl-3-pyridinyl)-4H-1,2,4-triazol-3-yl)-2-hydroxyethanesulfonamide]	0.33 nM
COc1cccc(OC)c1-n1c(NS(=O)(=O)C[C@H](O)c2ccc(C#N)cc2S(C)(=O)=O)nnc1-c1cncc(C)c1 (single isomer, unassigned) [Example 492.0, (2R)-2-(4-cyano-2-(methylsulfonyl)phenyl)-N-(4-(2,6-dimethoxyphenyl)-5-(5-methyl-3-pyridinyl)-4H-1,2,4-triazol-3-yl)-2-hydroxyethanesulfonamide or (2S)-2-(4-cyano-2-(methylsulfonyl)phenyl)-N-(4-(2,6-dimethoxyphenyl)-5-(5-methyl-3-pyridinyl)-4H-1,2,4-triazol-3-yl)-2-hydroxyethanesulfonamide]	0.61 nM

Source: patent US10058550B2, “Methods of treating heart failure” (priority 2015, dated 2018)
